Experimental data taken from patent publication US6774143B1, “Method for treating cells resistant to antineoplastic agents” (Novartis AG, priority 2003, dated 2004).
Read-outs that look alike come from different tables or passages of the source.

Columns and labels:
1A9PTX22 cell line = conditions: cited from earlier work
A549 cells = assay: Antiproliferative assay (MTS); format: cell-based, human; conditions: 72 h exposure, two independent experiments, read-out: IC50 cell proliferation
Method: A549, a human non-small cell lung carcinoma and MDA-MB-435, a human breast carcinoma, used in this study are obtained from the American Type Culture Collection (ATCC, Rockville, Md., USA). MDA-MB-435 cells are maintained in MEM containing 10% FBS, 1% sodium pyruvate, 1% MEM non-essential amino acids, and 15 mM HEPES (pH=7.4). A549 cells are maintained in RPMI 1640 containing 10% FBS. 1A9, a single-cell clone of the human ovarian carcinoma cell line A2780 and PTX22, the paclitaxel-resistant subline, used in this stdy are obtained from M. Wartman (Novartis Pharmauticals). 1A9 cells and PTX22 cells are maintained in RPMI 1640 supplemented with 10% FBS. PTX22 maintenance media also contained 15 ng/mL paclitaxel and 5 μg/mL verapamil. Drug is removed from the media for 5-7 days before use in an experiment. All maintenance media contained 100 units/mL penicillin and 100 μg/mL streptomycin.
Cell lines are trypsinized and counted using a Coulter counter. Cells were plated in 96 well plates (190 μL/well) at the following densities: 1,000 cells/well for A549 and 3,000 cells/well for MDA-MB-435. The number of cells plated results in cell densities of 75-90% confluence by the time of harvest. Plates are seeded on day 0. On day 1 test compounds are added to triplicate wells in a final volume of 10 μL media. Initial cell density for each cell line is measured on day 1 by adding 10 μL MTS mixture (see below), incubating for 4 h and recording absorbance at 490 nm (A490). Two or three days after test compound addition, 10 μL/well of MTS mixture is added to the test plates and A490 was read 4 h later. A490 values for wells containing cells are corrected for media absorbance, then normalized to initial density readings to determine percent net growth. Percent net growth is calculated as (A490+drug−A490 initial)/(A490—drug—A490 initial). Graphs of percent net growth as a function of compound concentration are used to calculate concentrations resulting in 50% growth inhibition (IC50). MTS mixture is prepared fresh on day of addition to cell plates at a ratio of 10 μL of a 0.92 mg/mL solution of phenazine methosulfate (PMS) to 190 μL of a 2 mg/mL solution of MTS (3-(4,5-dimethylthiazol-2-yl)-5-(3-carboxymethoxyphenyl)-2-(4-sulfophenyl)-2H-tetrazolium, inner salt). PMS and MTS solutions are prepared in buffered saline containing 0.2 g/L KCl, 8.0 g/L NaCl, 0.2 g/L KH2PO4, 1.15 g/L Na2HPO4, 133 mg/L CaCl2.2H2O, 100 mg/L MgCl2.6H2O, (pH=7.35) and stored as foil-wrapped aliquots at −20° C. Test compounds are prepared as stock solutions in DMSO. Test compound dilutions are made in 2% DMSO/cell maintenance media and diluted into assay plates to give 0.1% DMSO final in all wells.

[1] = tested on: panel of human tumor lines (drug-susceptible cell lines); assay: Antiproliferative assay, methylene blue staining; format: cell-based; conditions: 120 h, 5 days incubation
Source text: (§1) The following cell lines are obtained from the American Type Culture Collection (ATCC, Rockville, Md., USA): human colon carcinomas HCT-15 (CCL 225) and HCT-116 (CCL 247), human lung adenocarcinoma A549 (CCL 185), human large cell carcinoma NCI-H460 (HTB 177), estrogen-independent breast carcinoma MDA-MB-231 ([…]), prostate cancer cell line Du 145 (HTB 81). The human KB-31 (drug-sensitive) and KB-8511 (multidrug-resistant, Pgp170 overexpressing) epidermoid carcinoma cells are obtained from Dr. R. M. Baker, Roswell Park Memorial Institute (Buffalo, N.Y., USA) and have been previously described (Akiyam S, et al. Somatic Cell Molec Genetics 1985;11:117-126 and Fojo A, et al., Cancer Res. […];45:3002-3007). The human metastatic prostate carcinoma PC-3M is obtained from Dr. I. J. Fidler (MD Anderson Cancer Center, Houston, Tex., USA). The estrogen-dependent human breast carcinoma cell line MCF-7/ADR (multidrug resistant) is a subline of the MCF-7 cell line (ATCC HTB 22) and is obtained from Dr. D. Fabbro (Novartis Pharma AG, Basel, Switzerland) and has been previously described (Blobe G C, et al. J. Biol. Chem. 1993; 268:658-664).
For the antiproliferative assays, cells are seeded at 1.5×10^3/well into 96-well microtiter plates and incubated overnight. Compounds are added in serial dilutions on day 1. The plates are than incubated for additional 5 days. This allowed the control cultures to undergo at least 3 cell divisions. After incubation the cells are fixed with 3.3% v/v glutaraldehyde, washed with water and stained with 0.05% w/v methylene blue. After washing, the dye is eluted with 3% v/v HCl and the optical density measured at 665 nm with a SpectraMax 340 (Bucherer, Basel, Switzerland). IC50 values are determined by a computerized system (SoftPro, Bucherer, Basel, Switzerland) using the formula (OD test—OD start)/(OD control—OD start)×100. IC50 is defined as the drug concentration which leads to 50% of cells per well compared to control cultures (100%) at the end of the incubation period.

[2] = tested on: MCF-7/ADR cells (multidrug resistant); assay: Antiproliferative assay, methylene blue staining; format: cell-based, human
Source text: as §1, with “The estrogen-dependent human breast carcinoma cell line MCF-7/ADR (multidrug resistant) is a subline of the MCF-7 cell line (ATCC HTB 22) and is obtained from Dr. D. Fabbro (Novartis Pharma AG, Basel, Switzerland) and has been previously described (Blobe G C, et al. J. Biol. Chem. 1993; 268:658-664).” left out
For the antiproliferative assays, cells are seeded at 1.5×10^3/well into 96-well microtiter plates and incubated overnight. […] After washing, the dye is eluted with 3% v/v HCl and the optical density measured at 665 nm with a SpectraMax 340 (Bucherer, Basel, Switzerland). IC50 values are determined by a computerized system (SoftPro, Bucherer, Basel, Switzerland) using the formula (OD test—OD start)/(OD control—OD start)×100. […]

| Compound | fold less sensitive than 1A9 (reported) (1A9PTX22 cell line; PTX-22 subline) | fold resistance of 1A9PTX22 versus parental 1A9 (1A9PTX22 cell line; in vitro, Giannakakou et al. 1997) | IC50 (A549 cells) | IC50 (A549 cells; Homo sapiens, A549, 72 h) | IC50 [1] | potency compared with paclitaxel [2] |
| --- | --- | --- | --- | --- | --- | --- |
| CC(=O)O[C@H]1C(=O)[C@@]2(C)[C@H]([C@H](OC(=O)c3ccccc3)[C@]3(O)C[C@H](OC(=O)[C@H](O)[C@@H](NC(=O)c4ccccc4)c4ccccc4)C(C)=C1C3(C)C)[C@]1(OC(C)=O)CO[C@@H]1C[C@@H]2O [paclitaxel, reference compound] | 20-30 fold | 24 fold | – | – | – | – |
| C=C/C=C\[C@H](C)[C@H](OC(N)=O)[C@@H](C)[C@H](O)[C@@H](C)C/C(C)=C\[C@H](C)[C@@H](O)[C@@H](C)/C=C\[C@@H](O)C[C@@H]1OC(=O)[C@H](C)[C@@H](O)[C@H]1C [discodermolide, (+)-Discodermolide] | – | – | 0.06 µM | 0.045 µM | 0.002 to 0.024 µM | more potent than paclitaxel |
